For six molecules, Activity results are on record in ChEMBL document CHEMBL2074225, “Tissue distribution and chemical induction of multiple drug resistance genes in rats” (Drug Metab Dispos, 2002).

For series [1], the target named is Multidrug resistance protein 1a (Rattus norvegicus) (UniProt Q6PSM0). The series is described as follows: (§1) TP_TRANSPORTER: Branched DNA assay in vivo SD rat, liver. The class given is functional, organism-based. The conditions noted are these: Sprague-Dawley.
In series [2] the target is T1, ATP-dependent translocase ABCB1 (Rattus norvegicus, UniProt P43245). The description is as §1. The class given is functional, organism-based, Sprague-Dawley.
T1 sequence (P43245 whole entry): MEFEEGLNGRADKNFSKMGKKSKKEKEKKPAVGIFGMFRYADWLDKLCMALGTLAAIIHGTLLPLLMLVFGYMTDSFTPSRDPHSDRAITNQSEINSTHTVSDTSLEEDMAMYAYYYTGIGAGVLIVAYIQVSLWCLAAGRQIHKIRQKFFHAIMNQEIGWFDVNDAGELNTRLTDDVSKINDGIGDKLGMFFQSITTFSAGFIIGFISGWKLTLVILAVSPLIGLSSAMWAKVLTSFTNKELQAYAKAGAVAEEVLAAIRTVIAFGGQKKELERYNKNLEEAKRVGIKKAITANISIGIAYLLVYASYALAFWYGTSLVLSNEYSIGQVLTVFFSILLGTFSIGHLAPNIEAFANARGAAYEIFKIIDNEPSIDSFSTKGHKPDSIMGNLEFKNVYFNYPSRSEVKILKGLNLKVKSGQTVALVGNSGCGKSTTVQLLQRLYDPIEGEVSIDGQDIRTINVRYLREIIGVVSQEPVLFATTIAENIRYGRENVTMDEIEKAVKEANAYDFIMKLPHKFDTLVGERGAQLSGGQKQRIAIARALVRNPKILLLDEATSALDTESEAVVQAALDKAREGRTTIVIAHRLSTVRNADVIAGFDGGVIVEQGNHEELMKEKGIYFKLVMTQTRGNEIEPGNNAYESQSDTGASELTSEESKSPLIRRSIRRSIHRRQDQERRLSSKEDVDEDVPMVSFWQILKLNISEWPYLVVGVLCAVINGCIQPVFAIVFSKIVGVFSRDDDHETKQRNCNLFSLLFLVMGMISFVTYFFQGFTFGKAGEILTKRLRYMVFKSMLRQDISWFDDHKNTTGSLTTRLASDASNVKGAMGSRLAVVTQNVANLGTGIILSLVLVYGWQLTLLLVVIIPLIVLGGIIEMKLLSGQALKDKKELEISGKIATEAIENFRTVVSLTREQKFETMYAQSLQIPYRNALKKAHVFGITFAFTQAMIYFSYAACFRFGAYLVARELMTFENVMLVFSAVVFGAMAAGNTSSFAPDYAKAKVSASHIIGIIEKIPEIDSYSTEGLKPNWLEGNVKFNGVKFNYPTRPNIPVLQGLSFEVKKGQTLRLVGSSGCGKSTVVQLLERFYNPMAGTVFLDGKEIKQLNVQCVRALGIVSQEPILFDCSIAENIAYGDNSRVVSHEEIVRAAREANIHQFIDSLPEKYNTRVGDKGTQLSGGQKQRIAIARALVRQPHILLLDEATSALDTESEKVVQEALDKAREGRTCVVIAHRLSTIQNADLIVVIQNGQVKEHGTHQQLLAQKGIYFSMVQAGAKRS
Series [3] concerns the target T1, ATP-dependent translocase ABCB1. The series is described as follows: TP_TRANSPORTER: Branched DNA assay in vivo SD rat, kidney. The series is classed as functional, organism-based, Sprague-Dawley.

Sequence of Multidrug resistance protein 1a (Rattus norvegicus) (Q6PSM0 as listed by the source): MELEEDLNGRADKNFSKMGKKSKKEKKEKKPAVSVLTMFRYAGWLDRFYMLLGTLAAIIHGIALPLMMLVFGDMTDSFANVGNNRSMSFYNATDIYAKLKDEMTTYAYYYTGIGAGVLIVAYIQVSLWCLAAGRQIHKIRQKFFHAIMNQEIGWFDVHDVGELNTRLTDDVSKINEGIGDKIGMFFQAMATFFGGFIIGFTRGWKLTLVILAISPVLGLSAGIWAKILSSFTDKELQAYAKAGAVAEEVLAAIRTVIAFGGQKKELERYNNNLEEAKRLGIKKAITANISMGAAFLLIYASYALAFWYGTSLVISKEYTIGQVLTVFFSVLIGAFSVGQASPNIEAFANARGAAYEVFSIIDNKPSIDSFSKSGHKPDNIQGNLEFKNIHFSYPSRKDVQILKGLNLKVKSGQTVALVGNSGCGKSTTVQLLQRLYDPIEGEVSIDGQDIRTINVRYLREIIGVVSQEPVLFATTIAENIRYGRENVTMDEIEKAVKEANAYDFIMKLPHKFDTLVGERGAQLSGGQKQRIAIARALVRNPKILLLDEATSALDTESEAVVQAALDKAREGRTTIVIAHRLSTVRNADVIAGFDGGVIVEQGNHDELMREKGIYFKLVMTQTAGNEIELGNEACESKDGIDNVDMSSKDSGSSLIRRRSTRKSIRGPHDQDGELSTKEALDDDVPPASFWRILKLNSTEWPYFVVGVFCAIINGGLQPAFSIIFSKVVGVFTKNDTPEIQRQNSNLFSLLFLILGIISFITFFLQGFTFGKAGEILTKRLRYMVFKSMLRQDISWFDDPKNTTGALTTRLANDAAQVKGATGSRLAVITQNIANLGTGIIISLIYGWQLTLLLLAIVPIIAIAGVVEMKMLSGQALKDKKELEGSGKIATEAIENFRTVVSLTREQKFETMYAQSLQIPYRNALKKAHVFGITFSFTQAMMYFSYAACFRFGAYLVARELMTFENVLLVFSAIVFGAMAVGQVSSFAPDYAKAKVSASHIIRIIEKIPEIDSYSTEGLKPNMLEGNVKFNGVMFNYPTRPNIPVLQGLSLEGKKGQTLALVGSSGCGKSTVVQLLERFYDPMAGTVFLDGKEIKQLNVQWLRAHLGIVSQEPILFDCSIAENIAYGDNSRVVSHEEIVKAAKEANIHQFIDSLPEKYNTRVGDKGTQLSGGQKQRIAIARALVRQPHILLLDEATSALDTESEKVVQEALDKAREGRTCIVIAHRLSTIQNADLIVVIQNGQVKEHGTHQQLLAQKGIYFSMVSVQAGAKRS

Take `C=CCSCC=C`: in series [1], the Activity entry was “inducer [+]”.

In the case of `Cc1c(-c2cnccn2)ssc1=S`, the Activity result in series [1] is “inducer [+]”.

Regarding `NNC(=O)c1ccncc1`, the Activity entry in series [1] is “inducer [+]”.

As for `OCc1c[nH]c2ccccc12` [INDOLE-3-CARBINOL], in series [2], the Activity result is “inducer [+]”.

Turning to `Clc1ccc(-c2cc(Cl)c(Cl)cc2Cl)c(Cl)c1` [POLYCHLORINATED BIPHENYL 99], the Activity result in series [2] is “inducer [+]”.

Turning to `CN(N=O)C(=O)N[C@@H](C=O)[C@@H](O)[C@H](O)[C@H](O)CO` [STREPTOZOCIN], the Activity result in series [3] and in series [2] was “inducer [+]” each time.
